Test results reported in patent publication US6670373B1, “Compounds and method for inhibiting MRP1” (Eli Lilly and Company, priority 1999, dated 2003).

Tests used:
MRP1 = target: T1, MRP1 (Homo sapiens, UniProt P33527); test: Reversal of MRP1-mediated doxorubicin resistance in HL60/Adr cells (alamarBlue cell growth); format: cell-based; settings: oncolytic alone at the tested concentration
T1 construct: HL60/Adr and HL60/Vinc are continuous cell lines, which were selected for doxorubicin and vincristine resistance respectively; endogenous in cells; host or cells: HL60/Adr (doxorubicin-selected variant of human HL60)
Experimental: (§1) The biological activity of the compounds of the present invention was evaluated employing an initial screening assay which rapidly and accurately measured the activity of the tested compound in inhibiting MRP1 or MDR1. Assays useful for evaluating this reversing capability are well known in the art. See, e.g., T. McGrath, et al., Biochemical Pharmacology, 38:3611, 1989; D. Marquardt and M. S. Center, Cancer Research, 52:3157, 1992; D. Marquardt, et al., Cancer Research, 50:1426, 1990; and Cole, et. al., Cancer Research, 54: 5902-5910, 1994.
(§2) Assay for Reversal of MRP1-Mediated Doxorubicin Resistance and MDR1-Mediated Vincristine Resistance: HL60/Adr and HL60/Vinc are continuous cell lines, which were selected for doxorubicin and vincristine resistance respectively by culturing HL60, a human acute myeloblastic leukemia cell line, in increasing concentrations of doxorubicin or vincristine until a highly resistant variant was attained.
(§3) HL60/Adr and HL60/Vinc cells were grown in RPMI 1640 (Gibco) containing 10% fetal bovine serum (FBS) and 50 μg/ml GENTAMICIN™ (Sigma). Cells were harvested; washed twice with assay medium (same as culture media); counted; and diluted to 1×10^5 cells/ml in assay medium. One hundred microliters of cells were aliquoted into wells of a 96 well tissue culture plate. […]

MDR1 = target: T2, MDR1 (Homo sapiens, UniProt P08183); test: Reversal of MDR1-mediated vincristine resistance in HL60/Vinc cells (alamarBlue cell growth); format: cell-based; settings: oncolytic alone at the tested concentration
T2 construct: HL60/Adr and HL60/Vinc are continuous cell lines, which were selected for doxorubicin and vincristine resistance respectively; endogenous in cells; host or cells: HL60/Vinc (vincristine-selected variant of human HL60)
Experimental: as §1, §2, §3

T1 sequence (P33527 whole entry): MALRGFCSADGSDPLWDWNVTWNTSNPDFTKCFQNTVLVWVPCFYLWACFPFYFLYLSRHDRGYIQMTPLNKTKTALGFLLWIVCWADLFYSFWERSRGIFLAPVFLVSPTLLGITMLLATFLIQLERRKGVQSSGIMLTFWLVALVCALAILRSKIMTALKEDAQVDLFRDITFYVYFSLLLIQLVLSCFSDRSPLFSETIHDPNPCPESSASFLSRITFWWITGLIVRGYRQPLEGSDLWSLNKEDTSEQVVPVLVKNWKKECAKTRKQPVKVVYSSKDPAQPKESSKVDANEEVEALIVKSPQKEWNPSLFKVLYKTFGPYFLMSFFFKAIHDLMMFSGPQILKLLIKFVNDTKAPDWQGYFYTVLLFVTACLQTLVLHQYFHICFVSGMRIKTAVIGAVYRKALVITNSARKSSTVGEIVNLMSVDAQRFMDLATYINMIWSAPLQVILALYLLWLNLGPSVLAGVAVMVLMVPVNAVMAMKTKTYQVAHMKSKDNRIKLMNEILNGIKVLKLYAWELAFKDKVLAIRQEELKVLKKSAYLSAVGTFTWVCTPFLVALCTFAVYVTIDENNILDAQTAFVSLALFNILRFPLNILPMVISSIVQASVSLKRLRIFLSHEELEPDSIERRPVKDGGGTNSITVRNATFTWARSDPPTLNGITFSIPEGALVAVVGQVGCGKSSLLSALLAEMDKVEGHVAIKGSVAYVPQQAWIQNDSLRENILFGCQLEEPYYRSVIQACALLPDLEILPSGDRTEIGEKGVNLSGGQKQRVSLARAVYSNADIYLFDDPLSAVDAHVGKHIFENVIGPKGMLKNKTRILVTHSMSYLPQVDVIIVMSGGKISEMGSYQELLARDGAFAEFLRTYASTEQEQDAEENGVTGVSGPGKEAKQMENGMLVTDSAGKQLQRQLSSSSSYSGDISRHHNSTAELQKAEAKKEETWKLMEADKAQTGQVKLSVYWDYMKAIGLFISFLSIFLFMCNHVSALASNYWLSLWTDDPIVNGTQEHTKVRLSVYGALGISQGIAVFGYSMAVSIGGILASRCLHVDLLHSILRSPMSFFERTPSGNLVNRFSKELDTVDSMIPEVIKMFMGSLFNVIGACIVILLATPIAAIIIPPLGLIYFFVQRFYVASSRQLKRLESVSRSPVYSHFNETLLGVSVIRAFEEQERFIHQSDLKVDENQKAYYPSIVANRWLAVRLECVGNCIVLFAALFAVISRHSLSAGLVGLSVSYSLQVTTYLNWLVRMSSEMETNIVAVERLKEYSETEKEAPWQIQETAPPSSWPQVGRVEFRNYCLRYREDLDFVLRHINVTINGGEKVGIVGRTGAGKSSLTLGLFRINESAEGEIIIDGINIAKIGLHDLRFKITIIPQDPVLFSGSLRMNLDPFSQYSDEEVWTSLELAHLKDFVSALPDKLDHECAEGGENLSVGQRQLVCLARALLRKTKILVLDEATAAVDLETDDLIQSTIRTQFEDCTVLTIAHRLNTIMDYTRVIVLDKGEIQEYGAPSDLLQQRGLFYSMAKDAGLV
T2 sequence (P08183 whole entry): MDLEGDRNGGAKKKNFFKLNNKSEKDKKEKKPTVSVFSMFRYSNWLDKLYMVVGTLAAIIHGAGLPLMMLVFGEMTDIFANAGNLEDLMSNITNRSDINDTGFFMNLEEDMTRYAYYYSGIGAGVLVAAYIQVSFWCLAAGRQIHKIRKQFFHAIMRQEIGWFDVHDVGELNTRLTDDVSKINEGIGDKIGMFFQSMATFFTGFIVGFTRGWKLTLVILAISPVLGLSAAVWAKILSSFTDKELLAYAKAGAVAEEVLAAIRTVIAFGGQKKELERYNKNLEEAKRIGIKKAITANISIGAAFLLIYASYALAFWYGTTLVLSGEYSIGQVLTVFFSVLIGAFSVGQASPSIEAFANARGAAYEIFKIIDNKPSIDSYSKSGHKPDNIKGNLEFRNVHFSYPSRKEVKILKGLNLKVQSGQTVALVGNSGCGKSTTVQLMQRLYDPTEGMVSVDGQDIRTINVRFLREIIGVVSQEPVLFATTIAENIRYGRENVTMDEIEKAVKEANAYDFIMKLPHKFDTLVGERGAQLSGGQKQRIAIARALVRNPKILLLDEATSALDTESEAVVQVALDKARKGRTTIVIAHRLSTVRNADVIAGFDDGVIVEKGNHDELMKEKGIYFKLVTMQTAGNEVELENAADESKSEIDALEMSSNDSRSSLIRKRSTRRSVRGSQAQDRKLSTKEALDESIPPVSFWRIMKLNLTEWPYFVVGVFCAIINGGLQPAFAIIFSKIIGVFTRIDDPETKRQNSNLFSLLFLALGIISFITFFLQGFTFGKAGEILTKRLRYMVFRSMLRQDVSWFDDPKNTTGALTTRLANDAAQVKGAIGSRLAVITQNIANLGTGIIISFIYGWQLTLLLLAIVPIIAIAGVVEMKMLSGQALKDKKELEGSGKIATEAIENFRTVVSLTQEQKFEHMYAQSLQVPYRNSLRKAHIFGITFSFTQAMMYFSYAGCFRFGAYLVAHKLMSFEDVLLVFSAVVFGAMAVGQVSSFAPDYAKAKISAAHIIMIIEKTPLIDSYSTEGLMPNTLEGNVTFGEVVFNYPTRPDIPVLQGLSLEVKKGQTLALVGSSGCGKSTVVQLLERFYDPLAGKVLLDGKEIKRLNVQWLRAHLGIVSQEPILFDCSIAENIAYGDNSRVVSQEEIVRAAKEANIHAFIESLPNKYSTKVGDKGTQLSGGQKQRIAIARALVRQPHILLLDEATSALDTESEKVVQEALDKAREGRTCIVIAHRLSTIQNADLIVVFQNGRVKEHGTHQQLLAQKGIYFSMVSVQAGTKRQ

inhibition of cell growth by the oncolytic alone (MRP1): minimally inhibits
Compound: COc1cccc2c1C(=O)c1c(O)c3c(c(O)c1C2=O)C[C@@](O)(C(=O)CO)C[C@@H]3O[C@H]1C[C@H](N)[C@H](O)[C@H](C)O1 [doxorubicin]
inhibition of cell growth by the oncolytic alone (MDR1): minimally inhibits
